Assay results from patent US20210139517A1, “BICYCLIC HETEROARYL COMPOUNDS AND USES THEREOF” (Revolution Medicines, Inc., priority 2019, published 2021).

Each compound was assayed on SOS1 function in cells: cellular pERK in PC-9 cells (EGFR Ex19Del) (assay: pERK potency assay in PC-9 cells (AlphaLISA SureFire Ultra p-ERK1/2)). Conditions: 1 hour incubation.
Format: cell-based
Description: The purpose of this assay is tomeasure the ability of test compounds to inhibit SOS1 function in cells. SOS1 activates RAS proteins by catalyzing the conversion of RAS-GDP to RAS-GTP in response to receptor tyrosine kinase activation. […] The procedure described below measures the level of cellular pERK in response to test compounds in PC-9 cells (EGFR Ex19Del).
PC-9 cells were grown and maintained using media and procedures recommended by the ATCC. On the day prior to compound addition, cells were plated in 384-well cell culture plates (40 μL/well) and grown overnight in a 37° C., 5% CO2 incubator. Test compounds were prepared in 10, 3-fold dilutions in DMSO, with a top concentration of 10 mM. On the day of the assay, 40 nL of test compound was added to each well of cell culture plate using an Echo550 liquid handler (LabCyte). Concentrations of test compound were tested in duplicate with highest test concentration being 10 μM. After compound addition, cells were incubated for 1 hour at 37° C., 5% CO2. Following incubation, culture medium was removed and cells were washed once with phosphate buffered saline.
Cellular pERK level was determined using the AlphaLISA SureFire Ultra p-ERK1/2 Assay Kit (PerkinElmer). Cells were lysed in 25 μL lysis buffer, with shaking at 600 RPM at room temperature for 15 minutes. Lysate (10 μL) was transferred to a 384-well Opti-plate (PerkinElmer) and 5 μL acceptor mix was added. The plate was centrifuged at 1000 RPM for 1 minute, and incubated in the dark for 2 hours. Following this incubation, 5 μL of donor mix was added, the plate was sealed and centrifuged at 1000 RPM for 1 minute, and the mixture was incubated for 2 hours at room temperature. Signal was read on an Envision plate reader (PerkinElmer) using standard AlphaLISA settings. Analysis of raw data was carried out in Excel (Microsoft) and Prism (GraphPad). Signal was plotted vs. the decadal logarithm of compound concentration, and IC50 was determined by fitting a 4-parameter sigmoidal concentration response model.
In the case of `C[C@@H](Nc1ncnc2c1cc(C1CCN(CC(F)(F)F)CC1)c(=O)n2C)c1cccc(C(F)F)c1F` [Example 8-16], the IC50 is reported as 917 nM.
Compound `C[C@@H](Nc1ncnc2c1cc(C1(O)CCN(C)CC1)c(=O)n2C)c1cccc(C(F)F)c1F` [Example 28-1] has an IC50 of 187 nM.
With `COC1(c2cc3c(N[C@H](C)c4cccc(C(F)F)c4C)ncnc3n(C)c2=O)CCS(=O)(=O)CC1` [Example 32-86] the IC50 was 82.5 nM.
Compound `C[C@@H](Nc1ncnc2c1cc(C1CCN(C(=O)CO)CC1)c(=O)n2C)c1cccc(C(F)F)c1F` [Example 8-10] has an IC50 of 61.5 nM.
For `C[C@@H](Nc1ncnc2c1cc(-c1cnc(F)nc1)c(=O)n2C)c1cccc(C(F)F)c1F` [Example 21-5], the IC50 was 1200 nM.
In the case of `C[C@@H](Nc1ncnc2c1cc(C1CCN(CC(F)F)CC1)c(=O)n2C)c1cccc(C(F)F)c1F` [Example 8-13], the IC50 is reported as 364 nM.
With `CO[C@@]1(c2cc3c(N[C@H](C)c4cccc5c4OCC5(F)F)ncnc3n(C)c2=O)CCN(C(C)=O)C1` [Example 32-93] the IC50 was 294 nM.
Work on `C[C@@H](Nc1ncnc2c1cc(C1CCN(CCF)CC1)c(=O)n2C)c1cccc(C(F)F)c1F` [Example 8-4] yielded an IC50 of 229 nM.
In the case of `COC1(c2cc3c(N[C@H](C)c4cccc(C(F)F)c4F)ncnc3n(C)c2=O)CC2(COC2)C1` [Example 32-80], the IC50 is reported as 154 nM.
For `C[C@@H](Nc1ncnc2c1cc(C1=CCS(=O)(=O)CC1)c(=O)n2CC#N)c1cccc(C(F)F)c1F` [Example 11-3], the IC50 was 80.7 nM.
Work on `Cc1nc(N[C@H](C)c2cccc(C(F)F)c2F)c2cc(C3(O)CCN(C)CC3)c(=O)n(C)c2n1` [Example 28-2] yielded an IC50 of 572 nM.
`COC1(c2cc3c(N[C@H](C)c4cccc5c4OCC5(F)F)ncnc3n(C)c2=O)CCS(=O)(=O)CC1` [Example 32-77] showed an IC50 of 47.7 nM.
Work on `C[C@@H](Nc1ncnc2c1cc(-c1ccc[nH]1)c(=O)n2C)c1cccc(C(F)F)c1F` [Example 21-1] yielded an IC50 of 1160 nM.
Compound `C[C@@H](Nc1ncnc2c1cc(-c1cncnc1)c(=O)n2C)c1cccc(C(F)F)c1F` [Example 21-2] has an IC50 of 247 nM.
For `COC1(c2cc3c(N[C@H](C)c4cccc(C(F)F)c4F)ncnc3n(C)c2=O)CCC2(CC1)COC2` [Example 32-72], the IC50 was 127 nM.
`CO[C@]1(c2cc3c(N[C@H](C)c4cccc(C(F)F)c4C)ncnc3n(C)c2=O)CCN(C(C)=O)C1` [Example 32-98] showed an IC50 of 231 nM.
With `COc1ccc(Cc2cc3c(N[C@H](C)c4cccc(C(F)F)c4F)nc(C)nc3n(C)c2=O)cc1OC` [Example 20-1] the IC50 was 6600 nM.
Work on `COC1(c2cc3c(N[C@H](C)c4cccc(C(F)F)c4F)ncnc3n(C)c2=O)CC2CS(=O)(=O)CC2C1` (stereo partly drawn) [Example 32-84] yielded an IC50 of 173 nM.
In the case of `CO[C@@]1(c2cc3c(N[C@H](C)c4cccc(C(F)F)c4F)nc(C)nc3n(C)c2=O)CCN(C(C)=O)C1` [Example 32-69], the IC50 is reported as 77.8 nM.
With `COC1(c2cc3c(N[C@H](C)c4cccc(C(F)F)c4F)ncnc3n(C)c2=O)CCS(=O)(=O)C(C)C1` (stereo partly drawn) [Example 32-67] the IC50 was 128 nM.
Compound `CO[C@]1(c2cc3c(N[C@H](C)c4cccc5c4OCC5(F)F)ncnc3n(C)c2=O)CCN(C(C)=O)C1` [Example 32-94] has an IC50 of 28 nM.
Work on `COC1(c2cc3c(N[C@H](C)c4cccc(C(F)F)c4C)ncnc3n(C)c2=O)CCN(C(C)=O)CC1` [Example 32-87] yielded an IC50 of 13.4 nM.
For `C[C@@H](Nc1ncnc2c1cc(C1CCN(S(C)(=O)=O)CC1)c(=O)n2C)c1cccc(C(F)F)c1F` [Example 8-15], the IC50 was 394 nM.
`CCc1c(C(F)F)cccc1[C@@H](C)Nc1ncnc2c1cc(C1CCN(C(C)=O)CC1)c(=O)n2C` [Example 8-7] gave an IC50 of 351 nM.
In the case of `COC1(c2cc3c(N[C@H](C)c4cccc(C(F)F)c4F)ncnc3n(C)c2=O)CCN(C(C)=O)[C@H]1C` (stereo partly drawn) [Example 32-100], the IC50 is reported as 200 nM.
`C[C@@H](Nc1ncnc2c1cc(Cc1ccccc1)c(=O)n2C)c1cccc(C(F)F)c1F` [Example 20-2] gave an IC50 of 2550 nM.
`COC1(c2cc3c(N[C@H](C)c4cccc(C(F)F)c4F)ncnc3n(C)c2=O)CCC2(CC1)CN(C(C)=O)C2` [Example 32-78] was tested, and the IC50 was 49.3 nM.
In the case of `COC1(c2cc3c(N[C@H](C)c4cccc(C(F)F)c4F)ncnc3n(C)c2=O)CCN(C(C)=O)[C@@H]1C` (stereo partly drawn) [Example 32-101], the IC50 is reported as 348 nM.
Work on `Cc1nc(N[C@H](C)c2cccc(C(F)F)c2F)c2cc(C3CCS(=O)(=O)CC3)c(=O)n(C)c2n1` [Example 8-12] yielded an IC50 of 138 nM.
Work on `COc1ncccc1-c1cc2c(N[C@H](C)c3cccc(C(F)F)c3F)ncnc2n(C)c1=O` [Example 21-7] yielded an IC50 of 150 nM.
With `C[C@@H](Nc1ncnc2c1cc(C1(N)CCC3(CC1)CS(=O)(=O)C3)c(=O)n2C)c1cccc(C(F)F)c1F` [Example 31-5] the IC50 was 26.7 nM.
`C[C@@H](Nc1ncnc2c1cc(Cc1ccccc1)c(=O)n2C)c1cccc(C(F)(F)F)c1` [Example 20-3] showed an IC50 of 2640 nM.
For `C[C@@H](Nc1ncnc2c1cc(C1(C#N)CCN(C)CC1)c(=O)n2C)c1cccc(C(F)F)c1F` [Example 36-2], the IC50 was 63 nM.
Work on `CC(=O)N1CCC(c2cc3c(N[C@H](C)c4cccc(C(F)F)c4F)ncnc3n(C)c2=O)CC1` [Example 8-3] yielded an IC50 of 145 nM.
With `COC1(c2cc3c(N[C@H](C)c4cccc(C(F)F)c4F)ncnc3n(C)c2=O)CCS(=O)(=O)C1` (stereo partly drawn) [Example 32-74] the IC50 was 201 nM.
`Cc1nc(N[C@H](C)c2cccc(C(F)F)c2F)c2cc(-c3ccnnc3)c(=O)n(C)c2n1` [Example 21-3] showed an IC50 of 188 nM.
Compound `COC1(c2cc3c(N[C@H](C)c4cccc(C(F)F)c4F)ncnc3n(C3CC3)c2=O)CCN(C(C)=O)CC1` [Example 11-4] has an IC50 of 32.2 nM.
In the case of `C[C@@H](Nc1ncnc2c1cc(C1CCN(C3COC3)CC1)c(=O)n2C)c1cccc(C(F)F)c1F` [Example 8-8], the IC50 is reported as 389 nM.
Compound `C[C@@H](Nc1ncnc2c1cc(C1CCS(=O)(=O)CC1)c(=O)n2C)c1cccc(C(F)F)c1F` [Example 8-5] has an IC50 of 33.5 nM.
In the case of `COC1(c2cc3c(N[C@H](C)c4cccc(C(F)F)c4F)ncnc3n(C)c2=O)CCS(=O)(=O)C1` (stereo partly drawn) [Example 32-73], the IC50 is reported as 57.1 nM.
`CC(=O)N1CCC(OC2CC2)(c2cc3c(N[C@H](C)c4cccc(C(F)F)c4F)ncnc3n(C)c2=O)C1` (stereo partly drawn) [Example 32-71] gave an IC50 of 41.8 nM.
In the case of `COC1(c2cc3c(N[C@H](C)c4cccc(C(F)F)c4F)ncnc3n(C)c2=O)CN(C(C)=O)CC12CC2` (stereo partly drawn) [Example 32-95], the IC50 is reported as 798 nM.
In the case of `COC1(c2cc3c(N[C@H](C)c4cccc(C(F)F)c4F)ncnc3n(C)c2=O)CCCN(C(C)=O)C1` (stereo partly drawn) [Example 32-68], the IC50 is reported as 67.6 nM.
Work on `CO[C@@]1(c2cc3c(N[C@H](C)c4cccc(C(F)F)c4C)ncnc3n(C)c2=O)CCN(C(C)=O)C1` [Example 32-99] yielded an IC50 of 16.9 nM.
Work on `COC1(c2cc3c(N[C@H](C)c4cccc(C(F)F)c4F)ncnc3n(C)c2=O)CC2CS(=O)(=O)CC2C1` (stereo partly drawn) [Example 32-85] yielded an IC50 of 53.7 nM.
`Cc1nc(N[C@H](C)c2cccc(C(F)F)c2F)c2cc(C3CCN(C4COC4)CC3)c(=O)n(C)c2n1` [Example 8-14] showed an IC50 of 420 nM.
With `C[C@@H](Nc1ncnc2c1cc(-c1ccc3nonc3c1)c(=O)n2C)c1cccc(C(F)F)c1F` [Example 21-8] the IC50 was 334 nM.
`CC(=O)N1CCC(c2cc3c(N[C@H](C)c4cccc5c4CCC5(F)F)ncnc3n(C)c2=O)CC1` [Example 8-6] showed an IC50 of 34.4 nM.
`Cc1nc(N[C@H](C)c2cccc(C(F)F)c2F)c2cc(C3=CCCOC3)c(=O)n(CCO)c2n1` [Example 11-1] gave an IC50 of 345 nM.
With `COc1cccc(Cc2cc3c(N[C@H](C)c4cccc(C(F)F)c4F)nc(C)nc3n(C)c2=O)c1OC` [Example 20] the IC50 was 3950 nM.
`COC1(c2cc3c(N[C@H](C)c4cccc5c4OCC5(F)F)ncnc3n(C)c2=O)CCN(C(C)=O)CC1` [Example 32-76] gave an IC50 of 17.5 nM.
Work on `COC1(c2cc3c(N[C@@H](C)c4cccc(C(F)F)c4F)ncnc3n(C)c2=O)CCN(C(C)=O)CC1` [Example 32-88] yielded an IC50 of 8.1 nM.
With `Cc1c([C@@H](C)Nc2ncnc3c2cc(C2CCS(=O)(=O)CC2)c(=O)n3C)cccc1C(F)(F)F` [Example 8-11] the IC50 was 45.1 nM.
`COC1(c2cc3c(N[C@H](C)c4cccc(C(F)F)c4F)ncnc3n(C)c2=O)CCN(C)CC1` [Example 32-3] gave an IC50 of 2240 nM.

Same assay, conditions: Homo sapiens, PC-9, 1 h, 1 hour incubation
`CC(=O)N1CCC(c2cc3c(N[C@H](C)c4cc(N)cc(C(F)(F)F)n4)ncnc3n(C)c2=O)CC1` [Example 17, 6-(1-acetyl-4-piperidyl)-4-[[(1R)-1-[4-amino-6-(trifluoromethyl)-2-pyridyl]ethyl]amino]-8-methyl-pyrido[2,3-d]pyrimidin-7-one] was tested, and the IC50 was 377 nM.
Work on `CC(=O)N1CC2CC2(c2cc3c(N[C@H](C)c4cccc(C(F)F)c4F)ncnc3n(C)c2=O)C1` (stereo partly drawn) [Example 54, 6-{3-acetyl-3-azabicyclo[3.1.0]hexan-1-yl}-4-{[(1R)-1-[3-(difluoromethyl)-2-fluorophenyl]ethyl]amino}-8-methyl-7H,8H-pyrido[2,3-d]pyrimidin-7-one] yielded an IC50 of 46.3 nM.
`Cc1nc(N[C@H](C)c2cccc(C(F)F)c2F)c2cc(C3COC3)c(=O)n(C)c2n1` [Example 16, 4-[[(1R)-1-[3-(difluoromethyl)-2-fluoro-phenyl]ethyl]amino]-2,8-dimethyl-6-(oxetan-3-yl)pyrido[2,3-d]pyrimidin-7-one] gave an IC50 of 346 nM.
